Experimental data: publication PMC12209990, “Effect of Cytochrome P450 3A Inhibition and Induction by Itraconazole and Rifampin on Tazemetostat Pharmacokinetics in Patients With Advanced Malignancies” (Clinical Pharmacology in Drug Development, 2025)
Like-named read-outs stand apart in the source and are kept apart here. Marks after values point to notes of the source that are not given here.

How the values were obtained:
[1] = Safety (TEAEs) Part 2: tazemetostat coadministered with rifampin; conditions: in vivo
Protocol: (§1) Part 2 of the study evaluated the DDI between tazemetostat and rifampin. On the mornings of Days 1 and 15, patients received a single dose of tazemetostat 800 mg orally. On Days 3‐14, patients received tazemetostat 800 mg twice daily. On Days 17‐23, patients received tazemetostat 800 mg twice daily, coadministered in the morning with a single dose of rifampin 600 mg orally. On the morning of Day 24, patients received a single dose of tazemetostat 800 mg coadministered with rifampin 600 mg. On the morning of Day 25, patients received rifampin 600 mg (Figure 1B). Throughout Part 2, administration of rifampin occurred 1 hour before a meal.
Safety was assessed by monitoring treatment‐emergent adverse events (TEAEs) and vital signs, electrocardiography, and clinical laboratory tests. TEAEs were defined as adverse events that started or worsened in severity on or after the date of the first dose of the study drug through 30 days after the last dose. Treatment‐related TEAEs were summarized by each study drug for both study parts. Adverse events were coded using the Medical Dictionary for Regulatory Activities Version 23.1 and graded per Common Terminology Criteria for Adverse Events Version 5.0.

[2] = Phase I DDI study Part 2: tazemetostat plasma PK alone and with rifampin (noncompartmental analysis); assay type: in vivo, human; conditions: for AUC0‐12h ratio, geoLSM (90% CI) / Cmax ratio, geoLSM (90% CI): steady state with rifampin vs alone, Day 24 versus Day 15; for RacAUC (AUC0‐12h accumulation ratio), geoLSM (90% CI) / RacCmax (Cmax accumulation ratio), geoLSM (90% CI): tazemetostat 800 mg alone, Day 15 versus Day 1; for Tmax / AUC / AUC(0-t) / Cmax / half-life: human; for Tmax: read-out: tmax, median (range)
Excerpt: This was a Phase I, multicenter, open‐label, 2‐part study encompassing a fixed‐sequence design that aimed to characterize the PK of tazemetostat when administered as single and twice‐daily oral doses alone or in combination with either itraconazole (Part 1) or rifampin (Part 2). Secondary objectives were to evaluate the safety profile of tazemetostat when coadministered with either itraconazole (Part 1) or rifampin (Part 2).
as §1
In Part 2, plasma concentrations of tazemetostat following tazemetostat dosing on Days 1, 15, and 24 were quantified for PK analyses before dosing (0 hour) and at 0.5, 1, 1.5, 2, 4, 6, 8, 12, 24, 36, and 48 hours.
Plasma concentrations of tazemetostat, over the ranges of 1.00‐2000 ng/mL, were quantified by a fully validated liquid chromatography with tandem mass spectrometric detection analytical method. Samples that had no detectable peak or had the calculated concentration <1.00 ng/mL were reported as below the lower limit of quantification. Tazemetostat analysis consisted of protein precipitation extraction and separation using mobile phases of 100 mM ammonium formate/water (1:9 v/v) (mobile phase A) and 100 mM ammonium formate/acetonitrile (1:9 v/v) (mobile phase B). Detection was achieved using an API‐5500 mass spectrometer (AB Sciex) using electrospray ionization (positive‐ion mode) in the multiple reaction monitoring mode. The multiple reaction monitoring mode m/z transitions monitored were […] for tazemetostat and the dwell time was set at 300 milliseconds.
Plasma concentration‐time data for tazemetostat were analyzed by noncompartmental analysis using the validated software program Phoenix WinNonlin Professional Version 8.3 (Certara Inc., Mountain View, CA).

[3] = Part 2, tazemetostat 800 mg twice daily alone, multiple dosing, Day 15, plasma

CCN(c1cc(-c2ccc(CN3CCOCC3)cc2)cc(C(=O)NCc2c(C)cc(C)[nH]c2=O)c1C)C1CCOCC1 [Tazemetostat]
Tazemetostat‐related Grade 3/4 TEAE diarrhea ([1]; human): 4.8%
Tazemetostat‐related Grade 3/4 TEAE syncope ([1]; human): 4.8%
Treatment-related TEAE Grade 3 or 4, related to the named study drug, patients ([1]; human): 7 (33.3) n (%)
Treatment-related TEAEs, related to the named study drug, patients ([1]; human): 16 (76.2) n (%)
Treatment-related TESAE, related to the named study drug, patients ([1]; human): 1 (4.8) n (%)
Any TEAE, patients [1]: all patients
AUC0‐12h ratio, geoLSM (90% CI) ([2]; Part 2): 0.163 (0.128‐0.208) ^d
Cmax ratio, geoLSM (90% CI) ([2]; Part 2): 0.164 (0.122‐0.219) ^d
AUC0‐12h ratio, geoLSM (90% CI) ([2]; Part 2, listed as tazemetostat): 0.163
Cmax ratio, geoLSM (90% CI) ([2]; Part 2, listed as tazemetostat): 0.164
RacAUC (AUC0‐12h accumulation ratio), geoLSM (90% CI) ([2]; Part 2): 0.816 (0.638‐1.04) ^e
RacCmax (Cmax accumulation ratio), geoLSM (90% CI) ([2]; Part 2): 0.828 (0.635‐1.08) ^e
RacAUC (AUC0‐12h accumulation ratio), geoLSM (90% CI) ([2]; Part 2, listed as tazemetostat): 0.816
RacCmax (Cmax accumulation ratio), geoLSM (90% CI) ([2]; Part 2, listed as tazemetostat): 0.828
t1/2, GeoMean (CV%) [2, 3]: 7.55 (20.3) hour
tmax, median (range) [2, 3]: 1.00 (0.63‐4.00) hour
Tmax ([2]; oral, Part 2, tazemetostat 800 mg multiple dosing with rifampin 600 mg once daily, Day 24, plasma): 1.01 h
AUC ([2]; plasma, oral, 800 mg, Part 2, tazemetostat 800 mg twice daily alone, multiple dosing, Day 15, plasma, read-out: AUC0‐12 h, GeoMean (CV%)): 3.61 µg·h/mL
AUC ([2]; plasma, oral, 800 mg, Part 2, tazemetostat 800 mg twice daily alone, multiple dosing, Day 15, plasma, read-out: AUC0‐12 h, mean (SD)): 4.33 µg·h/mL
AUC(0-t) ([2]; plasma, oral, 800 mg, Part 2, tazemetostat 800 mg twice daily alone, multiple dosing, Day 15, plasma, read-out: AUClast, GeoMean (CV%)): 4.27 µg·h/mL
AUC(0-t) ([2]; plasma, oral, 800 mg, Part 2, tazemetostat 800 mg twice daily alone, multiple dosing, Day 15, plasma, read-out: AUClast, mean (SD)): 5.22 µg·h/mL
Cmax ([2]; plasma, oral, 800 mg, Part 2, tazemetostat 800 mg twice daily alone, multiple dosing, Day 15, plasma, read-out: Cmax, GeoMean (CV%)): 1.1 µg/mL
Cmax ([2]; plasma, oral, 800 mg, Part 2, tazemetostat 800 mg twice daily alone, multiple dosing, Day 15, plasma, read-out: Cmax, mean (SD)): 1.38 µg/mL
half-life ([2]; plasma, oral, 800 mg, Part 2, tazemetostat 800 mg twice daily alone, multiple dosing, Day 15, plasma, read-out: t1/2, mean (SD) (converted)): 7.7 h
AUC ([2]; plasma, oral, Part 2, tazemetostat 800 mg multiple dosing with rifampin 600 mg once daily, Day 24, plasma, read-out: AUC0‐12 h, GeoMean (CV%)): 0.588 µg·h/mL
AUC ([2]; plasma, oral, Part 2, tazemetostat 800 mg multiple dosing with rifampin 600 mg once daily, Day 24, plasma, read-out: AUC0‐12 h, mean (SD)): 0.77 µg·h/mL
AUC(0-t) ([2]; plasma, oral, Part 2, tazemetostat 800 mg multiple dosing with rifampin 600 mg once daily, Day 24, plasma, read-out: AUClast, GeoMean (CV%)): 0.676 µg·h/mL
AUC(0-t) ([2]; plasma, oral, Part 2, tazemetostat 800 mg multiple dosing with rifampin 600 mg once daily, Day 24, plasma, read-out: AUClast, mean (SD)): 0.934 µg·h/mL
Cmax ([2]; plasma, oral, Part 2, tazemetostat 800 mg multiple dosing with rifampin 600 mg once daily, Day 24, plasma, read-out: Cmax, GeoMean (CV%)): 0.181 µg/mL
Cmax ([2]; plasma, oral, Part 2, tazemetostat 800 mg multiple dosing with rifampin 600 mg once daily, Day 24, plasma, read-out: Cmax, mean (SD)): 0.233 µg/mL
half-life ([2]; plasma, oral, Part 2, tazemetostat 800 mg multiple dosing with rifampin 600 mg once daily, Day 24, plasma, read-out: t1/2, GeoMean (CV%) (converted)): 4.86 h
half-life ([2]; plasma, oral, Part 2, tazemetostat 800 mg multiple dosing with rifampin 600 mg once daily, Day 24, plasma, read-out: t1/2, mean (SD) (converted)): 5.06 h
AUC ([2]; plasma, po, 800 mg, Part 2, tazemetostat 800 mg oral single dose alone, Day 1, plasma, read-out: AUC0‐12 h, GeoMean (CV%)): 4.42 µg·h/mL
AUC ([2]; plasma, po, 800 mg, Part 2, tazemetostat 800 mg oral single dose alone, Day 1, plasma, read-out: AUC0‐12 h, mean (SD)): 5.31 µg·h/mL
AUC(0-t) ([2]; plasma, po, 800 mg, Part 2, tazemetostat 800 mg oral single dose alone, Day 1, plasma, read-out: AUClast, GeoMean (CV%)): 5.2 µg·h/mL
AUC(0-t) ([2]; plasma, po, 800 mg, Part 2, tazemetostat 800 mg oral single dose alone, Day 1, plasma, read-out: AUClast, mean (SD)): 6.37 µg·h/mL
Cmax ([2]; plasma, po, 800 mg, Part 2, tazemetostat 800 mg oral single dose alone, Day 1, plasma, read-out: Cmax, GeoMean (CV%)): 1.33 µg/mL
Cmax ([2]; plasma, po, 800 mg, Part 2, tazemetostat 800 mg oral single dose alone, Day 1, plasma, read-out: Cmax, mean (SD)): 1.55 µg/mL
half-life ([2]; plasma, po, 800 mg, Part 2, tazemetostat 800 mg oral single dose alone, Day 1, plasma, read-out: t1/2, GeoMean (CV%) (converted)): 6.22 h
half-life ([2]; plasma, po, 800 mg, Part 2, tazemetostat 800 mg oral single dose alone, Day 1, plasma, read-out: t1/2, mean (SD) (converted)): 6.49 h
Tmax ([2]; Part 2, tazemetostat 800 mg oral single dose alone, Day 1, plasma): 1.04 h
decrease of tazemetostat steady‐state exposure (Cmax and AUC0‐12h) by rifampin ([2]; steady state, Day 24/Day 15): approximately 84%
